What was measured:
OPM-2 cells = assay: CellTiter-Glo cell proliferation assay, OPM-2; format: cell-based; conditions: Homo sapiens; OPM-2, 50 nM, 72 hrs
Method: (§1) Cell proliferation was measured using the CellTiter-Glo® Luminescent Cell Viability Assay. The assay involved the addition of a single reagent (CellTiter-Glo® Reagent) directly to cells cultured in serum-supplemented medium. KMS-12-BM, OPM-2 and MOLP8 cells were cultured according to DSMZ recommendations and were seeded at 20,000 cells per well. Each compound evaluated was prepared as a DMSO stock solution (10 mM). Compounds were tested in triplicate on each plate, with a single concentration indicated in each table. Compound treatment (10.0 µL) was added to the cells from the 10x concentration of each compound. Plates were then incubated at 37° C., 5% CO2. After 72 hrs, cell plates were equilibrated at room temperature (rt) for approximately 30 mins. An equi-volume amount of CellTiter-Glo® Reagent (100 µL) was added to each well. Plates were mixed for 2 mins on an orbital shaker to induce cell lysis and then incubated at rt for 10 mins to stabilize the luminescent signal. Luminescence was recorded using a SpectraMAX, M5e plate reader according to CellTiter-Glo protocol.

MOLP-8 cells = assay: CellTiter-Glo cell proliferation assay, MOLP-8; format: cell-based; conditions: Homo sapiens; MOLP-8, 2 nM, 72 hrs
Method: as §1

KMS-12-BM cells = assay: CellTiter-Glo cell proliferation assay, KMS-12-BM; format: cell-based; conditions: Homo sapiens, 90 nM, 72 hrs
Method: as §1

A427 cells = assay: A427 cell growth study (DNA content, Hoechst 33258); format: cell-based; conditions: suboptimal doses, single agent, Day 6
Method: Experiment method: 3000 of A427 cells were seeded in 96-well pates and allowed to adhere overnight. Treatments with Compound (1A) and/or Triapine were added the next day. Cells were harvested at Day 6 and were assayed for DNA content using Hoechst 33258. Fluorescence intensity was read at excitation 346 nm and emission 460 nm using a plate reader. Data shown in FIG. 27 are representative of three independent experiments (raw fluorescence reading).

TOV21G xenograft = TOV21G xenograft model; format: in vivo, BALB/c nude mice; conditions: 50 mg/kg i.p. once per week
Method: TOV21G xenograft model was established by the inoculation of 200 µL of TOV-21G tumor cell suspension (5×10^6 cells/mouse, with 50% Matrigel) subcutaneously into the right subaxillary of BALB/c nude mice. When tumors reached approximately 100 to 150 mm^3, tumor bearing animals were randomly distributed into treatment groups of 10 animals each. Animals were orally dosed with vehicle or Compound (1A) at 60 mg/kg for 19 days, carboplatin at 50 mg/kg by the i.p. injection once per week, and Compound (1A) treatment in combination with carboplatin. Tumor volumes were evaluated twice per week to calculate tumor volume over time, and the mice were weighed twice per week as a surrogate for signs of toxicity.

OVCAR3 xenograft = assay: OVCAR3 ovarian tumor model, Doxorubicin combination; format: in vivo, BABL/c nude mice; conditions: OVCAR3, 2.5 mg/kg i.p. once per week for 4 weeks, single agent
Method: OVCAR3 xenograft model was established by the inoculation of 200 µL of OVCAR3 tumor cell suspension (1×10^7 cells/mouse, with 50% Matrigel) subcutaneously into the right subaxillary of BABL/c nude mice. When tumors reached approximately 180.8 mm^3, tumor bearing animals were randomly distributed into treatment groups of 10 animals each. […] Tumor volumes were evaluated twice per week to calculate tumor volume over time, and the mice were weighed twice per week as a surrogate for signs of toxicity.

x2-MDA-MB-468 tumor = assay: x2 MDA-MB-468 TNBC tumor model, Niraparib combination; format: in vivo, mouse; conditions: x2-MDA-MB-468, 45 mg/kg orally, 7 days on, 7 days off for 4 cycles
Method: The x2-MDA-MB-468 cells (ATCC-Chempartner) were maintained in vitro as a monolayer culture in DMEM medium added with 10% FBS, 100 U/mL penicillin and 100 µg/mL streptomycin at 37° C. in an atmosphere of 5% CO2 in air. Each mouse was implanted subcutaneously on right flank with 1 × 10^7 x2-MDA-MD-468 cells in 0.2 mL mixture of RPMI1640 medium with BD Matrigel (base medium: Matrigel=100 uL:100 uL) for tumor development. […] Tumor volumes were evaluated twice per week to calculate tumor volume over time, and the mice were weighed twice per week as a surrogate for signs of toxicity.

`Nc1ccn([C@@H]2O[C@H](CO)[C@@H](O)C2(F)F)c(=O)n1` [Gemcitabine] showed an inhibition at 0.05 µM (OPM-2 cells) of 35.1%, an inhibition at 0.002 µM (MOLP-8 cells) of 22% and an inhibition at 0.09 µM (KMS-12-BM cells) of 38%.

In the case of `NC(=S)N/N=C/c1ncccc1N` [Triapine], the A427 cell growth (A427 cells) is reported as “do not inhibit A427 cell growth”.

Work on `N.N.O=C([O-])C1(C(=O)[O-])CCC1.[Pt+2]` [carboplatin] yielded a TGI (TOV21G xenograft) of 89.75%.

`COc1cccc2c1C(=O)c1c(O)c3c(c(O)c1C2=O)C[C@@](O)(C(=O)CO)C[C@@H]3O[C@H]1C[C@H](N)[C@H](O)[C@H](C)O1` [doxorubicin] gave a TGI (OVCAR3 xenograft) of 43.11%.

`NC(=O)c1cccc2cn(-c3ccc([C@@H]4CCCNC4)cc3)nc12` [niraparib] gave a TGI (x2-MDA-MB-468 tumor) of 47.7%.
